Laboratory results as given in patent publication US10407467B2, “Polymyxin derivatives and their use in combination therapy together with different antibiotics” (priority 2013, dated 2019).
Values after ≈ are worked out from the molar mass of the structure shown. Values joined by “and” are separate entries in the source; they are usually repeats but may differ in a detail not shown here. Equal entries are not always repeated. Structures can show the parent of a compound that is named as a salt. Where two headings read alike, the source gives them in different places. Each block holds one compound with its values, some of them ahead of it. Bridge positions count the residues as written; N and C are the ends. Square brackets hold non-standard residues; d marks the D form. Peptide text beside a SMILES is read from it. * marks the point of attachment. ξ: configuration not given here. X12 = CC(C)C[C@H](N)[C@H](O)C(=O)*; Thr(3ξ) = CC(O)[C@H](N)C(=O)O; Dab = NCC[C@H](N)C(=O)O; X3 = O=C([C@H]1CCCNC1)*

Columns and labels:
Acinetobacter baumannii [1] = assay: MIC, sole activity (no second agent); format: cell-based; conditions: Table 6A; no second agent; different supplier of Cation-adjusted MHB
Outline: (§1)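 Up to four strains per species were tested in cation-adjusted Mueller-Hinton broth, with inoculum made by direct colony suspension from 18-24 hour Mueller-Hinton agar plates, adjusted to 0.5 McFarland. Duplicates differing by under 2-fold gave the lower value; greater spread voided the run. Values are relative to Polymyxin B.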

Klebsiella pneumoniae [2] = assay: MIC, sole activity (no second agent); format: cell-based; conditions: Table 6A; no second agent; different supplier of Cation-adjusted MHB
Outline: as §1

Escherichia coli [3] = assay: MIC, sole activity (no second agent); format: cell-based; conditions: Table 6A; no second agent; different supplier of Cation-adjusted MHB
Outline: as §1

Pseudomonas aeruginosa [4] = assay: MIC, sole activity (no second agent); format: cell-based; conditions: Table 6A; no second agent; different supplier of Cation-adjusted MHB
Outline: as §1

Acinetobacter baumannii [5] = assay: MIC, compound in combination with a second agent (broth microdilution); format: cell-based; conditions: 1:1 (wt:wt) combination with Rifampicin; for MIC: Acinetobacter baumannii
Outline: (§2)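 Read-out is the total-drug MIC of a 1:1 weight ratio combination with another agent, e.g. rifampicin. Duplicates within 2-fold gave the lower value; wider spread meant a non-valid assay. Where compounds were tested multiple times, the mode is given.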

Klebsiella pneumoniae [6] = assay: as above; format: cell-based; conditions: 1:1 (wt:wt) combination with Rifampicin; for MIC: Klebsiella pneumoniae
Outline: as §2

Escherichia coli [7] = assay: as above; format: cell-based; conditions: 1:1 (wt:wt) combination with Rifampicin; for MIC: Escherichia coli
Outline: as §2

Pseudomonas aeruginosa [8] = assay: as above; format: cell-based; conditions: 1:1 (wt:wt) combination with Rifampicin; for MIC: Pseudomonas aeruginosa
Outline: as §2

HK-2 cell line = assay: In vitro renal cell toxicity assay (resazurin reduction); format: cell-based, human
P. aeruginosa ATCC27853 = format: in vivo, Pseudomonas aeruginosa; conditions: ATCC27853, in vivo, iv, 5 mg/kg, 6 h
Method: Compounds were administered in solution by intravenous (IV) bolus injection into the lateral tail vein. […] At 1 hour post infection, 4 animals were humanely euthanized using pentabarbitone overdose to provide a pre-treatment control group. At 9 hours post infection, the clinical condition of all animals was assessed prior to them being humanely euthanized by pentabarbitone overdose. Animal weight was determined before both thighs were removed and weighed individually. Individual thigh tissue samples were homogenized in ice cold sterile phosphate buffered saline. Thigh homogenates were then quantitatively cultured onto CLED agar and incubated at 37° C. for 24 hours before colonies were counted.

P. aeruginosa = assay: MIC against panel of strains enriched for resistance to colistin or polymyxin B (CLSI), alone or 1:1 with rifampicin; format: cell-based, Pseudomonas aeruginosa; conditions: one value per strain of the panel
Method: (§3) […] For example, a well at 2 μg/mL consisted of 1 μg/mL test compound and 1 μg/mL rifampicin.
(§4) • where n indicates the number of strains within the panel for a particular organism.

K. pneumoniae = assay: as above; format: cell-based, Klebsiella pneumoniae; conditions: one value per strain of the panel
Method: as §3, §4

[9] = MIC = total drug concentration, strain ATCC BAA-747
[10] = MIC = total drug concentration, strain CCUG57249
[11] = MIC = total drug concentration, strain NCTC 13423
[12] = MIC = total drug concentration, strain NCTC 13424
[13] = MIC is total drug concentration
[14] = MIC = total drug concentration, strain CCUG-59348
[15] = MIC = total drug concentration, strain ATCC25922
[16] = MIC = total drug concentration, strain NCTC9001
[17] = MIC = total drug concentration, strain ATCC 27853
[18] = MIC = total drug concentration, strain ATCC CRM-9027
[19] = MIC = total drug concentration, strain ATCC-47
[20] = MIC = total drug concentration, strain CCUG 59626

MIC A. baumannii ATCC BAA-747 (Acinetobacter baumannii [1]): 2 micrograms/mL
MIC A. baumannii NCTC 13424 (Acinetobacter baumannii [1]): 1 micrograms/mL
MIC K. pneumoniae ATCC 4352 (Klebsiella pneumoniae [2]): 0.25 micrograms/mL
MIC K. pneumoniae ATCC BAA-2146 (Klebsiella pneumoniae [2]): 0.25 micrograms/mL
MIC E. coli ATCC25922 (Escherichia coli [3]): 0.5 micrograms/mL
MIC E. coli NCTC 13441 (Escherichia coli [3]): 0.5 micrograms/mL
MIC P. aeruginosa ATCC 27853 (Pseudomonas aeruginosa [4]): 0.5 micrograms/mL
MIC P. aeruginosa CCUG 59347 (Pseudomonas aeruginosa [4]): 2 micrograms/mL
MIC A. baumannii ATCC BAA-747 (Acinetobacter baumannii [5]; [9]): ≤0.06 micrograms/mL
MIC A. baumannii CCUG57249 (Acinetobacter baumannii [5]; [10]): ≤0.06 micrograms/mL
MIC A. baumannii NCTC 13423 (Acinetobacter baumannii [5]; [11]): ≤0.06 micrograms/mL
MIC A. baumannii NCTC 13424 (Acinetobacter baumannii [5]; [12]): ≤0.06 micrograms/mL
MIC A. baumannii ATCC BAA-747 (Acinetobacter baumannii [5]; [13]): ≤0.06 micrograms/mL
MIC A. baumannii CCUG57249 (Acinetobacter baumannii [5]; [13]): ≤0.06 micrograms/mL
MIC A. baumannii NCTC 13423 (Acinetobacter baumannii [5]; [13]): ≤0.06 micrograms/mL
MIC A. baumannii NCTC 13424 (Acinetobacter baumannii [5]; [13]): ≤0.06 micrograms/mL
MIC K. pneumoniae ATCC-BAA-2146 (Klebsiella pneumoniae [6]; MIC = total drug concentration, strain ATCC-BAA-2146): 0.125 micrograms/mL
MIC K. pneumoniae CCUG-59348 (Klebsiella pneumoniae [6]; [14]): 2 micrograms/mL
MIC K. pneumoniae NCTC 13438 (Klebsiella pneumoniae [6]; MIC = total drug concentration, strain NCTC 13438): 0.125 micrograms/mL
MIC K. pneumoniae ATCC-BAA-2146 (Klebsiella pneumoniae [6]; [13]): 0.125 micrograms/mL
MIC K. pneumoniae CCUG-59348 (Klebsiella pneumoniae [6]; [13]): 2 micrograms/mL
MIC K. pneumoniae NCTC 13438 (Klebsiella pneumoniae [6]; [13]): 0.125 micrograms/mL
MIC E. coli ATCC25922 (Escherichia coli [7]; [15]): 0.125 micrograms/mL
MIC E. coli NCTC9001 (Escherichia coli [7]; [16]): ≤0.06 micrograms/mL
MIC E. coli ATCC25922 (Escherichia coli [7]; [13]): 0.125 micrograms/mL
MIC E. coli NCTC9001 (Escherichia coli [7]; [13]): ≤0.06 micrograms/mL
MIC P. aeruginosa ATCC 27853 (Pseudomonas aeruginosa [8]; [17]): ≤0.06 micrograms/mL
MIC P. aeruginosa ATCC CRM-9027 (Pseudomonas aeruginosa [8]; [18]): 0.125 micrograms/mL
MIC P. aeruginosa ATCC-47 (Pseudomonas aeruginosa [8]; [19]): ≤0.06 micrograms/mL
MIC P. aeruginosa CCUG 59626 (Pseudomonas aeruginosa [8]; [20]): ≤0.06 micrograms/mL
MIC P. aeruginosa ATCC 27853 (Pseudomonas aeruginosa [8]; [13]): ≤0.06 micrograms/mL
MIC P. aeruginosa ATCC CRM-9027 (Pseudomonas aeruginosa [8]; [13]): 0.125 micrograms/mL
MIC P. aeruginosa ATCC-47 (Pseudomonas aeruginosa [8]; [13]): ≤0.06 micrograms/mL
MIC P. aeruginosa CCUG 59626 (Pseudomonas aeruginosa [8]; [13]): ≤0.06 micrograms/mL
SMILES: CC(C)C[C@@H]1NC(=O)[C@@H](Cc2ccccc2)NC(=O)[C@H](CCN)NC(=O)[C@@H](NC(=O)[C@H](CCN)NC(=O)[C@@H](NC(=O)[C@H]2CCCNC2)[C@@H](C)O)CCNC(=O)[C@H]([C@@H](C)O)NC(=O)[C@H](CCN)NC(=O)[C@H](CCN)NC1=O [Example 37, (S)-Piperidine-3-carbonyl polymyxin B nonapeptide, trifluoroacetate salt] (X3-T[Dab][Dab][Dab][dF]L[Dab][Dab]T; lactam 3-C)
HK-2 IC50 rel to PMB (HK-2 cell line): 21
log reduction in bacterial counts compared to non-treated control (P. aeruginosa ATCC27853): 1.75 log

MIC A. baumannii ATCC BAA-747 (Acinetobacter baumannii [5]; [9]): ≤0.06 micrograms/mL
MIC A. baumannii CCUG57249 (Acinetobacter baumannii [5]; [10]): ≤0.06 micrograms/mL
MIC A. baumannii NCTC 13423 (Acinetobacter baumannii [5]; [11]): ≤0.06 micrograms/mL
MIC A. baumannii NCTC 13424 (Acinetobacter baumannii [5]; [12]): ≤0.06 micrograms/mL
MIC K. pneumoniae CCUG-59348 (Klebsiella pneumoniae [6]; [14]): 2 micrograms/mL
MIC E. coli ATCC25922 (Escherichia coli [7]; [15]): ≤0.06 micrograms/mL
MIC E. coli NCTC9001 (Escherichia coli [7]; [16]): 0.125 micrograms/mL
MIC P. aeruginosa ATCC 27853 (Pseudomonas aeruginosa [8]; [17]): 0.125 micrograms/mL
MIC P. aeruginosa ATCC CRM-9027 (Pseudomonas aeruginosa [8]; [18]): 0.25 micrograms/mL
MIC P. aeruginosa ATCC-47 (Pseudomonas aeruginosa [8]; [19]): ≤0.06 micrograms/mL
MIC P. aeruginosa CCUG 59626 (Pseudomonas aeruginosa [8]; [20]): 0.125 micrograms/mL
SMILES: CC(C)C[C@@H]1NC(=O)[C@@H](Cc2ccccc2)NC(=O)[C@H](CCN)NC(=O)[C@@H](NC(=O)[C@H](CCN)NC(=O)[C@@H](NC(=O)[C@@H](O)[C@@H](N)CC(C)C)C(C)O)CCNC(=O)[C@H](C(C)O)NC(=O)[C@H](CCN)NC(=O)[C@H](CCN)NC1=O (stereo partly drawn) [Example 41, (2S,3S)-3-Amino-2-hydroxy-5-methylhexanoyl polymyxin B nonapeptide, trifluoroacetate salt] (X12-[Thr(3ξ)][Dab][Dab][Dab][dF]L[Dab][Dab][Thr(3ξ)]; lactam 3-C)
log reduction in bacterial counts compared to non-treated control (P. aeruginosa ATCC27853): 2.73 log

MIC (P. aeruginosa; Pseudomonas aeruginosa, read-out: MIC Pseudomonas aeruginosa (n = 6), agent alone): 32 µg/mL (≈ 38.9 µM)
MIC (K. pneumoniae; Klebsiella pneumoniae, read-out: MIC Klebsiella pneumoniae (n = 11), agent alone): 16 µg/mL (≈ 19.4 µM)
MIC (Acinetobacter baumannii [5]; ATCCBAA747, MIC = total drug concentration, strain ATCC BAA-747, read-out: MIC A. baumannii ATCC BAA-747): 2 µg/mL
MIC (Acinetobacter baumannii [5]; NCTC13423, MIC = total drug concentration, strain NCTC 13423, read-out: MIC A. baumannii NCTC 13423): 1 µg/mL
MIC (Acinetobacter baumannii [5]; NCTC13424, MIC = total drug concentration, strain NCTC 13424, read-out: MIC A. baumannii NCTC 13424): 1 µg/mL
MIC (Acinetobacter baumannii [5]; MIC = total drug concentration, strain CCUG57249, read-out: MIC A. baumannii CCUG57249): 2 µg/mL
MIC (Klebsiella pneumoniae [6]; ATCC4352, MIC = total drug concentration, strain ATCC 4352, read-out: MIC K. pneumoniae ATCC 4352): 8 µg/mL
MIC (Klebsiella pneumoniae [6]; ATCCBAA2146, MIC = total drug concentration, strain ATCC-BAA-2146, read-out: MIC K. pneumoniae ATCC-BAA-2146): 16 µg/mL
MIC (Klebsiella pneumoniae [6]; CCUG59348, MIC = total drug concentration, strain CCUG-59348, read-out: MIC K. pneumoniae CCUG-59348): 32 µg/mL
MIC (Klebsiella pneumoniae [6]; NCTC13438, MIC = total drug concentration, strain NCTC 13438, read-out: MIC K. pneumoniae NCTC 13438): 16 µg/mL
MIC (Escherichia coli [7]; MIC = total drug concentration, strain ATCC25922, read-out: MIC E. coli ATCC25922): 4 µg/mL
MIC (Escherichia coli [7]; MIC = total drug concentration, strain NCTC9001, read-out: MIC E. coli NCTC9001): 4 µg/mL
MIC (Pseudomonas aeruginosa [8]; ATCC47, MIC = total drug concentration, strain ATCC-47, read-out: MIC P. aeruginosa ATCC-47): 16 µg/mL
MIC (Pseudomonas aeruginosa [8]; ATCC27853, MIC = total drug concentration, strain ATCC 27853, read-out: MIC P. aeruginosa ATCC 27853): 16 µg/mL
MIC (Pseudomonas aeruginosa [8]; CCUG59626, MIC = total drug concentration, strain CCUG 59626, read-out: MIC P. aeruginosa CCUG 59626): 16 µg/mL
MIC (Pseudomonas aeruginosa [8]; MIC = total drug concentration, strain ATCC CRM-9027, read-out: MIC P. aeruginosa ATCC CRM-9027): 16 µg/mL
SMILES: CO[C@H]1/C=C/O[C@@]2(C)Oc3c(C)c(O)c4c(O)c(c(/C=N/N5CCN(C)CC5)c(O)c4c3C2=O)NC(=O)/C(C)=C\C=C\[C@H](C)[C@H](O)[C@@H](C)[C@@H](O)[C@@H](C)[C@H](OC(C)=O)[C@@H]1C [Rifampicin, reference compound]
MIC Pseudomonas aeruginosa (n = 6) (P. aeruginosa; agent alone): 16 micrograms/mL and 32, 32, 32 micrograms/mL
MIC Klebsiella pneumoniae (n = 11) (K. pneumoniae; agent alone): 32 micrograms/mL and > 32 micrograms/mL and >32, 32, 32, micrograms/mL and 32, 32, >32, micrograms/mL and >32, >32 micrograms/mL
